Assay results from the kinase profiling compilation of Christmann-Franck et al. (2016).

What was measured:
Assay in all cases: KINOMEscan competition binding
MAP3K13 (human) = MAP3K13 (human) (UniProt O43283)
NEK7 (human) = NEK7 (human) (UniProt Q8TDX7)
HUNK (human) = HUNK (human) (UniProt P57058)
SGK110 (human) = SGK110 (human) (UniProt P0C264)
PTK6 (human) = PTK6 (human) (UniProt Q13882)
STK17A (human) = STK17A (human) (UniProt Q9UEE5)
PIM2 (human) = PIM2 (human) (UniProt Q9P1W9)
LRRK2 (human) = LRRK2 (human) (UniProt Q5S007)
CDK15 (human) = CDK15 (human) (UniProt Q96Q40)
ADCK3 (human) = ADCK3 (human) (UniProt Q8NI60)
TAOK1 (human) = TAOK1 (human) (UniProt Q7L7X3)
MET (human) = MET (human) (UniProt P08581)
SNRK (human) = SNRK (human) (UniProt Q9NRH2)
EPHB1 (human) = EPHB1 (human) (UniProt P54762)
[1] = system: PIK3CA (human), P42336 [E545K]
Sequence of PIK3CA (human), P42336 [E545K] (P42336 whole entry E545K, looked up): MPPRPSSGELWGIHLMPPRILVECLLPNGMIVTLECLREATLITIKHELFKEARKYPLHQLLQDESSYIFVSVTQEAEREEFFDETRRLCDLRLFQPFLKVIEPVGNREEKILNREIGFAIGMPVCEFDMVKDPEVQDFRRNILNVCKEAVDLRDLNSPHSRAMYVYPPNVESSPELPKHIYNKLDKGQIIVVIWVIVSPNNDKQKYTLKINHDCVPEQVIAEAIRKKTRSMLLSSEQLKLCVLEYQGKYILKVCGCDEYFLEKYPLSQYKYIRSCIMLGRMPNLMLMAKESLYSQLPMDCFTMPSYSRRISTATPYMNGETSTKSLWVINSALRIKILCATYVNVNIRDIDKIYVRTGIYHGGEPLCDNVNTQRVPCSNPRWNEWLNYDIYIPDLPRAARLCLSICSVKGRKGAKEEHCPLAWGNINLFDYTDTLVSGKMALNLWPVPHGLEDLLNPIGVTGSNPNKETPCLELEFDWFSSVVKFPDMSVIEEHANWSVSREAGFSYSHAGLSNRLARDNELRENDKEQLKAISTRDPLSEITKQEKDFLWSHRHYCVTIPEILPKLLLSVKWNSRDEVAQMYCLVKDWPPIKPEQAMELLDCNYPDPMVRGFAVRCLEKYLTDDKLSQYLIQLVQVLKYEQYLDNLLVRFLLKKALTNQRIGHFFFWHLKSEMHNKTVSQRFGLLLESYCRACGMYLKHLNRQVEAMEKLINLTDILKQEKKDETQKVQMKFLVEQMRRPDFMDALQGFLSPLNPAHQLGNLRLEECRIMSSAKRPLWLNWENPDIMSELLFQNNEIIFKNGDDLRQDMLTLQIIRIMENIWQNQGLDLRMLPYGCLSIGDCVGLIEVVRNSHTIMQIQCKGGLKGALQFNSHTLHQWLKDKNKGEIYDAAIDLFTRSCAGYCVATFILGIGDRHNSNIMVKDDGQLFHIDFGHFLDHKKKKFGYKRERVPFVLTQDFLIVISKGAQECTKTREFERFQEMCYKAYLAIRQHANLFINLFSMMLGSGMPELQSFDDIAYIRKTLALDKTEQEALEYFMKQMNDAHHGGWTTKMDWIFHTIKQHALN

CDC42BPA (human) = CDC42BPA (human) (UniProt Q5VT25)
DCLK1 (human) = DCLK1 (human) (UniProt O15075)
STK33 (human) = STK33 (human) (UniProt Q9BYT3)
PIM3 (human) = PIM3 (human) (UniProt Q86V86)
ULK1 (human) = ULK1 (human) (UniProt O75385)
NTRK1 (human) = NTRK1 (human) (UniProt P04629)
PAK3 (human) = PAK3 (human) (UniProt O75914)
CDC42BPB (human) = CDC42BPB (human) (UniProt Q9Y5S2)
PRKD3 (human) = PRKD3 (human) (UniProt O94806)
Sequence of PRKD3 (human) (O94806 whole entry, looked up): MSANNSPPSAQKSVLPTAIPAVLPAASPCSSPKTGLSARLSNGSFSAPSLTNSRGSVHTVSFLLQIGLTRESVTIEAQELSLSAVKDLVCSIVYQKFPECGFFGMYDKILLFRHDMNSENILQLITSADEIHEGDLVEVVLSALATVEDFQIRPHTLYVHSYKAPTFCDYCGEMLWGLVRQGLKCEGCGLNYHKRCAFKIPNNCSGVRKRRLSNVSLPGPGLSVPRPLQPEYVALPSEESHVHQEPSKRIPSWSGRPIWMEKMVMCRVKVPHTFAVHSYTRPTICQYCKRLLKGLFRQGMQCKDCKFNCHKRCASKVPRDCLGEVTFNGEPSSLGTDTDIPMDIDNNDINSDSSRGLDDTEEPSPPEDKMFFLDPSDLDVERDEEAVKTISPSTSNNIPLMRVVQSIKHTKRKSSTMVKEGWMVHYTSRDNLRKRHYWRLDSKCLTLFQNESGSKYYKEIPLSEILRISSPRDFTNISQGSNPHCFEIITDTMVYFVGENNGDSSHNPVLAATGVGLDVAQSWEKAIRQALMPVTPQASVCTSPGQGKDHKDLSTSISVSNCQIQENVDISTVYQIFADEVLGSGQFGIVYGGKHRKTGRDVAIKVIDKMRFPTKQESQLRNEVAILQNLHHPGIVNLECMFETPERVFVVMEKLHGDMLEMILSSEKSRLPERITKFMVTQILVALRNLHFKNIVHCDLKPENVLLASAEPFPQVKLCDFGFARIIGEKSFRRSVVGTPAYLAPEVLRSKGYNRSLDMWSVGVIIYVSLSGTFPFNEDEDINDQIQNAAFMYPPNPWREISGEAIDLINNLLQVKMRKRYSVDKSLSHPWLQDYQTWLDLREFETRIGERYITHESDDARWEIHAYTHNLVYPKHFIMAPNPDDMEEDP

PHKG1 (human) = PHKG1 (human) (UniProt Q16816)
EPHA6 (human) = EPHA6 (human) (UniProt Q9UF33)
CDK4 CCND1 (human) = CDK4 CCND1 (human) (UniProt P11802+P24385)
ULK3 (human) = ULK3 (human) (UniProt Q6PHR2)
CDK7 (human) = CDK7 (human) (UniProt P50613)
PRKX (human) = PRKX (human) (UniProt P51817)
Sequence of PRKX (human) (P51817 whole entry, looked up): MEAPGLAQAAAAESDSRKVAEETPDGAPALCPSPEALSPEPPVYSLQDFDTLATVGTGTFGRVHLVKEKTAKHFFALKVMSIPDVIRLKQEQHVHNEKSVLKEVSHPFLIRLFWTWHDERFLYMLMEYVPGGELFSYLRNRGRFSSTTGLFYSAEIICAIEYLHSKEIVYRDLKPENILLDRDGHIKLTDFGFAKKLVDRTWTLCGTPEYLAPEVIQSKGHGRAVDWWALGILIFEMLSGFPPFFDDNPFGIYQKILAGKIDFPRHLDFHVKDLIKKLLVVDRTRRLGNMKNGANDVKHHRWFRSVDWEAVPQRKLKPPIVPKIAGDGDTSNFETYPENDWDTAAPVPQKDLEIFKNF

[2] = system: EGFR (human), P00533 [T790M/L858R]
ROS1 (human) = ROS1 (human) (UniProt P08922)
Sequence of ROS1 (human) (P08922 whole entry, looked up): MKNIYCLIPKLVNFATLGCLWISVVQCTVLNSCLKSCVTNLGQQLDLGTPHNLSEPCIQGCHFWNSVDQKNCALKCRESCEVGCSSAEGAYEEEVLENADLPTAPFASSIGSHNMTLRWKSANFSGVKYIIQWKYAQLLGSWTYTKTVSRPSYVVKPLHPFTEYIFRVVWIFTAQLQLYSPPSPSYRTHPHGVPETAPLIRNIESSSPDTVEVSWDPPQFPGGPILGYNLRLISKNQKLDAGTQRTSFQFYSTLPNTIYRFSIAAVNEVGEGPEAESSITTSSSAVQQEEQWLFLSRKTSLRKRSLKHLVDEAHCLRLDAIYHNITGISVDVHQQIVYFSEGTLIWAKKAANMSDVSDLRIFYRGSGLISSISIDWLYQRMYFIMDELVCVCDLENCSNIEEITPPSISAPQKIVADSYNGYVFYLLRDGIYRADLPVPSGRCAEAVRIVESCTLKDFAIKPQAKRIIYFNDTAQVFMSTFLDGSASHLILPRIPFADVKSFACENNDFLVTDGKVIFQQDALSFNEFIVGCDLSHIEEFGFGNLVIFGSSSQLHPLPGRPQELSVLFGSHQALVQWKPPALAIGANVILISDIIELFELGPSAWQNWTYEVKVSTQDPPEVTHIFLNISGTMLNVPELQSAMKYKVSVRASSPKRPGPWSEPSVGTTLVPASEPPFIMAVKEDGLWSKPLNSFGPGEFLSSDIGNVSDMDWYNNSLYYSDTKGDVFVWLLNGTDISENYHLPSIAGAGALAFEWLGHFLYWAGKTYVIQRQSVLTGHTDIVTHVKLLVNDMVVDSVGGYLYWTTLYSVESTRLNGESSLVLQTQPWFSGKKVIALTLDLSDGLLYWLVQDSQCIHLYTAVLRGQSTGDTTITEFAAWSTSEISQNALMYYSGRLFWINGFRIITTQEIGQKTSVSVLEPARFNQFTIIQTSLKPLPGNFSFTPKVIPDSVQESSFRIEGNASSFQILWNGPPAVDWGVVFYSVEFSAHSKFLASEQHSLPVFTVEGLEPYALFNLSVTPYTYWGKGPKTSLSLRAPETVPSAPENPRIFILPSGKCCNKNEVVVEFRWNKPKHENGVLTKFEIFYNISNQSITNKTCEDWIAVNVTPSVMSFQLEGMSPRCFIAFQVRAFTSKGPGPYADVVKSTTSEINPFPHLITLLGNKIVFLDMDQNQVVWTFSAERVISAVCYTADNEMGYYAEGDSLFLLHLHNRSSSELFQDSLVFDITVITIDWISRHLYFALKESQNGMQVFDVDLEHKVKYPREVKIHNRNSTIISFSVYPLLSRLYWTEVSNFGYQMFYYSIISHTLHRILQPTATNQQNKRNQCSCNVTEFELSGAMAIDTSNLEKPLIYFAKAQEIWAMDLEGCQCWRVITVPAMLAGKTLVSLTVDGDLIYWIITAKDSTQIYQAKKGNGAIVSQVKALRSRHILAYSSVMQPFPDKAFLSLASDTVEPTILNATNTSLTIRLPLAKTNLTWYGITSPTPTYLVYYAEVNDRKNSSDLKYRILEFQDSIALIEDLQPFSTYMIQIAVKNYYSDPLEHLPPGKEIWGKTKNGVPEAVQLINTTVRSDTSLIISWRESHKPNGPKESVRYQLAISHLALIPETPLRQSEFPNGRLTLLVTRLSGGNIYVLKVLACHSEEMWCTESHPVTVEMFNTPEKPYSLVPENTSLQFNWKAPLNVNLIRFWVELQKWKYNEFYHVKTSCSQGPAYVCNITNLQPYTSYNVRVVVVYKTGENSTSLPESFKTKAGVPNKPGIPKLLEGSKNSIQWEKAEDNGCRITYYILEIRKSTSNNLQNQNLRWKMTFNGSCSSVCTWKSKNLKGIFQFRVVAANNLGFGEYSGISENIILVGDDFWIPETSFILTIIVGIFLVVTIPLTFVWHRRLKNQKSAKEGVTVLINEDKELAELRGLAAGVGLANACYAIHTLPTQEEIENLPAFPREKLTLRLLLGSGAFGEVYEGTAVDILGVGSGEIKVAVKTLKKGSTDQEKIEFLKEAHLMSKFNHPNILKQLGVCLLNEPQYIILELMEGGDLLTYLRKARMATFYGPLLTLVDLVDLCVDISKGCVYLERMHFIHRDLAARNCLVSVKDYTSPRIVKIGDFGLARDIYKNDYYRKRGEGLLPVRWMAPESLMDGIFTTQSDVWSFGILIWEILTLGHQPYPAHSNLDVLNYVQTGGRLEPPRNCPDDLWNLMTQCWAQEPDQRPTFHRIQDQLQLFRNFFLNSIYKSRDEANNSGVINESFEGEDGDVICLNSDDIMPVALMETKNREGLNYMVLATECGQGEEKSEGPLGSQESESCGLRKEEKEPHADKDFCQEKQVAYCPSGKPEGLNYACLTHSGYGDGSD

CDK9 (human) = CDK9 (human) (UniProt P50750)
Sequence of CDK9 (human) (P50750 whole entry, looked up): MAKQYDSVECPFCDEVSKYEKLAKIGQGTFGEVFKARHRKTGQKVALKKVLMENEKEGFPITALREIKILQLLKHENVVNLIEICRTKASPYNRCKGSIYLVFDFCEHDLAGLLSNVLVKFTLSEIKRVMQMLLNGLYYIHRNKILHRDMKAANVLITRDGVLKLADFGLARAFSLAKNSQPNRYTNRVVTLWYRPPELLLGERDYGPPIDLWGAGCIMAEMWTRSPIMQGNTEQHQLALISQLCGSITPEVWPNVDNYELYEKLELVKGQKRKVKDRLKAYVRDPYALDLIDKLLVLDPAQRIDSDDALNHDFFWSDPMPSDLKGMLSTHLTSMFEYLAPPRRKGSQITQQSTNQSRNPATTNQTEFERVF

MERTK (human) = MERTK (human) (UniProt Q12866)
SRMS (human) = SRMS (human) (UniProt Q9H3Y6)
CSNK2A1 (human) = CSNK2A1 (human) (UniProt P68400)
[3] = system: RET (human), P07949 [M918T]
MST1R (human) = MST1R (human) (UniProt Q04912)
RIOK3 (human) = RIOK3 (human) (UniProt O14730)
CSNK1E (human) = CSNK1E (human) (UniProt P49674)
[4] = system: PIK3CA (human), P42336 [I800L]
Sequence of PIK3CA (human), P42336 [I800L] (P42336 whole entry I800L, looked up): as the sequence (P42336 whole entry E545K, looked up) above, with K545E, I800L counted along it

RIPK4 (human) = RIPK4 (human) (UniProt P57078)
PAK1 (human) = PAK1 (human) (UniProt Q13153)

Structure (SMILES): Cc1ccc(NC(=O)c2ccc(NC(=O)/C=C/CN(C)C)cc2)cc1Nc1nccc(-c2cccnc2)n1
- kinase still bound, per cent of control (MAP3K13 (human); compound 10.0 µM): 89%
- kinase still bound, per cent of control (NEK7 (human); compound 10.0 µM): 20%
- kinase still bound, per cent of control (HUNK (human); compound 10.0 µM): 25%
- kinase still bound, per cent of control (SGK110 (human); compound 10.0 µM): 85%
- kinase still bound, per cent of control (PTK6 (human); compound 10.0 µM): 85%
- kinase still bound, per cent of control (STK17A (human); compound 10.0 µM): 1.6%
- kinase still bound, per cent of control (PIM2 (human); compound 10.0 µM): 100%
- kinase still bound, per cent of control (LRRK2 (human); compound 10.0 µM): 41%
- kinase still bound, per cent of control (CDK15 (human); compound 10.0 µM): 100%
- kinase still bound, per cent of control (ADCK3 (human); compound 10.0 µM): 76%
- kinase still bound, per cent of control (TAOK1 (human); compound 10.0 µM): 46%
- kinase still bound, per cent of control (MET (human); compound 10.0 µM): 100%
- kinase still bound, per cent of control (SNRK (human); compound 10.0 µM): 92%
- kinase still bound, per cent of control (EPHB1 (human); compound 10.0 µM): 100%
- kinase still bound, per cent of control ([1]; compound 10.0 µM): 96%
- kinase still bound, per cent of control (CDC42BPA (human); compound 10.0 µM): 83%
- kinase still bound, per cent of control (DCLK1 (human); compound 10.0 µM): 84%
- kinase still bound, per cent of control (STK33 (human); compound 10.0 µM): 97%
- kinase still bound, per cent of control (PIM3 (human); compound 10.0 µM): 66%
- kinase still bound, per cent of control (ULK1 (human); compound 10.0 µM): 23%
- kinase still bound, per cent of control (NTRK1 (human); compound 10.0 µM): 95%
- kinase still bound, per cent of control (PAK3 (human); compound 10.0 µM): 68%
- kinase still bound, per cent of control (CDC42BPB (human); compound 10.0 µM): 78%
- kinase still bound, per cent of control (PRKD3 (human); compound 10.0 µM): 100%
- kinase still bound, per cent of control (PHKG1 (human); compound 10.0 µM): 87%
- kinase still bound, per cent of control (EPHA6 (human); compound 10.0 µM): 100%
- kinase still bound, per cent of control (CDK4 CCND1 (human); compound 10.0 µM): 100%
- kinase still bound, per cent of control (ULK3 (human); compound 10.0 µM): 100%
- kinase still bound, per cent of control (CDK7 (human); compound 10.0 µM): 68%
- kinase still bound, per cent of control (PRKX (human); compound 10.0 µM): 43%
- kinase still bound, per cent of control ([2]; compound 10.0 µM): 100%
- kinase still bound, per cent of control (ROS1 (human); compound 10.0 µM): 100%
- kinase still bound, per cent of control (CDK9 (human); compound 10.0 µM): 100%
- kinase still bound, per cent of control (MERTK (human); compound 10.0 µM): 81%
- kinase still bound, per cent of control (SRMS (human); compound 10.0 µM): 71%
- kinase still bound, per cent of control (CSNK2A1 (human); compound 10.0 µM): 11%
- kinase still bound, per cent of control ([3]; compound 10.0 µM): 81%
- kinase still bound, per cent of control (MST1R (human); compound 10.0 µM): 100%
- kinase still bound, per cent of control (RIOK3 (human); compound 10.0 µM): 47%
- kinase still bound, per cent of control (CSNK1E (human); compound 10.0 µM): 72%
- kinase still bound, per cent of control ([4]; compound 10.0 µM): 88%
- kinase still bound, per cent of control (RIPK4 (human); compound 10.0 µM): 97%
- kinase still bound, per cent of control (PAK1 (human); compound 10.0 µM): 89%

Structure (SMILES): Cc1cc(NC(=O)c2cccc(NC(=O)/C=C/CN(C)C)c2)ccc1Nc1nccc(-c2cccnc2)n1
- kinase still bound, per cent of control (MAP3K13 (human); compound 1.0 µM): 93%
- kinase still bound, per cent of control (NEK7 (human); compound 1.0 µM): 100%
- kinase still bound, per cent of control (HUNK (human); compound 1.0 µM): 53%
- kinase still bound, per cent of control (SGK110 (human); compound 1.0 µM): 95%
- kinase still bound, per cent of control (PTK6 (human); compound 1.0 µM): 100%
- kinase still bound, per cent of control (STK17A (human); compound 1.0 µM): 24%
- kinase still bound, per cent of control (PIM2 (human); compound 1.0 µM): 100%
- kinase still bound, per cent of control (LRRK2 (human); compound 1.0 µM): 50%
- kinase still bound, per cent of control (CDK15 (human); compound 1.0 µM): 100%
- kinase still bound, per cent of control (ADCK3 (human); compound 1.0 µM): 100%
- kinase still bound, per cent of control (TAOK1 (human); compound 1.0 µM): 67%
- kinase still bound, per cent of control (MET (human); compound 1.0 µM): 100%
- kinase still bound, per cent of control (SNRK (human); compound 1.0 µM): 100%
- kinase still bound, per cent of control (EPHB1 (human); compound 1.0 µM): 100%
- kinase still bound, per cent of control ([1]; compound 1.0 µM): 100%
- kinase still bound, per cent of control (CDC42BPA (human); compound 1.0 µM): 100%
- kinase still bound, per cent of control (DCLK1 (human); compound 1.0 µM): 100%
- kinase still bound, per cent of control (STK33 (human); compound 1.0 µM): 100%
- kinase still bound, per cent of control (PIM3 (human); compound 1.0 µM): 56%
- kinase still bound, per cent of control (ULK1 (human); compound 1.0 µM): 100%
- kinase still bound, per cent of control (NTRK1 (human); compound 1.0 µM): 87%
- kinase still bound, per cent of control (PAK3 (human); compound 1.0 µM): 100%
- kinase still bound, per cent of control (CDC42BPB (human); compound 1.0 µM): 68%
- kinase still bound, per cent of control (PRKD3 (human); compound 1.0 µM): 80%
- kinase still bound, per cent of control (PHKG1 (human); compound 1.0 µM): 87%
- kinase still bound, per cent of control (EPHA6 (human); compound 1.0 µM): 100%
- kinase still bound, per cent of control (CDK4 CCND1 (human); compound 1.0 µM): 92%
- kinase still bound, per cent of control (ULK3 (human); compound 1.0 µM): 40%
- kinase still bound, per cent of control (CDK7 (human); compound 1.0 µM): 39%
- kinase still bound, per cent of control (PRKX (human); compound 1.0 µM): 0%
- kinase still bound, per cent of control ([2]; compound 1.0 µM): 81%
- kinase still bound, per cent of control (ROS1 (human); compound 1.0 µM): 90%
- kinase still bound, per cent of control (CDK9 (human); compound 1.0 µM): 100%
- kinase still bound, per cent of control (MERTK (human); compound 1.0 µM): 100%
- kinase still bound, per cent of control (SRMS (human); compound 1.0 µM): 94%
- kinase still bound, per cent of control (CSNK2A1 (human); compound 1.0 µM): 57%
- kinase still bound, per cent of control ([3]; compound 1.0 µM): 90%
- kinase still bound, per cent of control (MST1R (human); compound 1.0 µM): 100%
- kinase still bound, per cent of control (RIOK3 (human); compound 1.0 µM): 72%
- kinase still bound, per cent of control (CSNK1E (human); compound 1.0 µM): 70%
- kinase still bound, per cent of control ([4]; compound 1.0 µM): 88%
- kinase still bound, per cent of control (RIPK4 (human); compound 1.0 µM): 79%
- kinase still bound, per cent of control (PAK1 (human); compound 1.0 µM): 100%

Structure (SMILES): CN(C)C/C=C/C(=O)Nc1cccc(C(=O)Nc2ccc(Nc3nccc(-c4c(-c5ccccc5)nn5ccccc45)n3)cc2)c1
- kinase still bound, per cent of control (MAP3K13 (human); compound 1.0 µM): 100%
- kinase still bound, per cent of control (NEK7 (human); compound 1.0 µM): 100%
- kinase still bound, per cent of control (HUNK (human); compound 1.0 µM): 67%
- kinase still bound, per cent of control (SGK110 (human); compound 1.0 µM): 100%
- kinase still bound, per cent of control (PTK6 (human); compound 1.0 µM): 82%
- kinase still bound, per cent of control (STK17A (human); compound 1.0 µM): 93%
- kinase still bound, per cent of control (PIM2 (human); compound 1.0 µM): 100%
- kinase still bound, per cent of control (LRRK2 (human); compound 1.0 µM): 72%
- kinase still bound, per cent of control (CDK15 (human); compound 1.0 µM): 100%
- kinase still bound, per cent of control (ADCK3 (human); compound 1.0 µM): 0%
- kinase still bound, per cent of control (TAOK1 (human); compound 1.0 µM): 40%
- kinase still bound, per cent of control (MET (human); compound 1.0 µM): 55%
- kinase still bound, per cent of control (SNRK (human); compound 1.0 µM): 100%
- kinase still bound, per cent of control (EPHB1 (human); compound 1.0 µM): 84%
- kinase still bound, per cent of control ([1]; compound 1.0 µM): 100%
- kinase still bound, per cent of control (CDC42BPA (human); compound 1.0 µM): 13%
- kinase still bound, per cent of control (DCLK1 (human); compound 1.0 µM): 93%
- kinase still bound, per cent of control (STK33 (human); compound 1.0 µM): 91%
- kinase still bound, per cent of control (PIM3 (human); compound 1.0 µM): 94%
- kinase still bound, per cent of control (ULK1 (human); compound 1.0 µM): 87%
- kinase still bound, per cent of control (NTRK1 (human); compound 1.0 µM): 30%
- kinase still bound, per cent of control (PAK3 (human); compound 1.0 µM): 52%
- kinase still bound, per cent of control (CDC42BPB (human); compound 1.0 µM): 16%
- Kd (PRKD3 (human)): 240 nM
- kinase still bound, per cent of control (PRKD3 (human); compound 1.0 µM): 0%
- kinase still bound, per cent of control (PHKG1 (human); compound 1.0 µM): 100%
- kinase still bound, per cent of control (EPHA6 (human); compound 1.0 µM): 32%
- kinase still bound, per cent of control (CDK4 CCND1 (human); compound 1.0 µM): 79%
- kinase still bound, per cent of control (ULK3 (human); compound 1.0 µM): 84%
- kinase still bound, per cent of control (CDK7 (human); compound 1.0 µM): 83%
- kinase still bound, per cent of control (PRKX (human); compound 1.0 µM): 94%
- kinase still bound, per cent of control ([2]; compound 1.0 µM): 36%
- kinase still bound, per cent of control (ROS1 (human); compound 1.0 µM): 100%
- kinase still bound, per cent of control (CDK9 (human); compound 1.0 µM): 100%
- kinase still bound, per cent of control (MERTK (human); compound 1.0 µM): 49%
- kinase still bound, per cent of control (SRMS (human); compound 1.0 µM): 87%
- kinase still bound, per cent of control (CSNK2A1 (human); compound 1.0 µM): 74%
- kinase still bound, per cent of control ([3]; compound 1.0 µM): 10%
- kinase still bound, per cent of control (MST1R (human); compound 1.0 µM): 100%
- kinase still bound, per cent of control (RIOK3 (human); compound 1.0 µM): 97%
- kinase still bound, per cent of control (CSNK1E (human); compound 1.0 µM): 0%
- kinase still bound, per cent of control ([4]; compound 1.0 µM): 77%
- kinase still bound, per cent of control (RIPK4 (human); compound 1.0 µM): 100%
- kinase still bound, per cent of control (PAK1 (human); compound 1.0 µM): 98%
